Data from US5576323A, “Excitatory amino acid receptor antagonists” (Eli Lilly and Company, priority 1994, dated 1996).

System: metabotropic glutamate receptors
Experiment: displacement of 1S,3R-ACPD-sensitive [3H]glutamate binding to rat forebrain crude membranes
Settings: 100 μM, mixture of enantiomers unless otherwise noted
Protocol: The binding of [^3 H]glutamate was conducted with crude membranes of rat forebrain as described by Schoepp and True. Schoepp and True, Neuroscience Lett., 145, 100-104 (1992), True and Schoepp, Society for Neuroscience Abstracts, 19, 470 (1993) and Wright, McDonald and Schoepp, J. Neurochem. 63: 938-945, 1994.

SMILES	Percent displacement of L-[3H]Glu [%]
NC(CC(Sc1ccccc1)C(=O)O)C(=O)O (centres unmarked) [Compound 2, 4-Benzenethioglutamic Acid]	77.1
N[C@@H](CC(Oc1cccc(-c2ccccc2)c1)C(=O)O)C(=O)O (some centres unmarked) [Compound 13, 4-(3-Phenylphenoxy)glutamic Acid]	81.6
N[C@@H](CC(Oc1ccccc1Cc1ccccc1)C(=O)O)C(=O)O (some centres unmarked) [Compound 15, 4-(2-Benzylphenoxy)glutamic Acid]	85.9
N[C@@H](CC(Oc1ccc(CCCCCCc2ccccc2)cc1)C(=O)O)C(=O)O (some centres unmarked) [Compound 16, 4-(4-(6-Phenylhexyl)phenoxy)glutamic Acid]	76.9
N[C@@H](CC(Oc1ccc(CC=Cc2ccccc2)cc1)C(=O)O)C(=O)O (some centres unmarked) [Compound 17, 4-(4-(3-Phenylprop-2-enyl)phenoxy)glutamic Acid]	75.9
N[C@@H](CC(Oc1ccc(C=Cc2ccc([N+](=O)[O-])cc2)cc1)C(=O)O)C(=O)O (some centres unmarked) [Compound 18, 4-(4-(2-(4-Nitrophenyl)ethenyl)phenoxy)glutamic Acid]	92.1
N[C@@H](CC(Oc1ccc(OCc2ccccc2)cc1)C(=O)O)C(=O)O (some centres unmarked) [Compound 20, 4-(4-Benzyloxyphenoxy)glutamic Acid]	67.8
N[C@@H](CC(Oc1ccc2cc(Br)ccc2c1Br)C(=O)O)C(=O)O (some centres unmarked) [Compound 23, 4-(1,6-Dibromo-2-naphthyloxy)glutamic Acid]	99.5
NC(CC(Sc1ccc2ccccc2c1)C(=O)O)C(=O)O (centres unmarked) [Compound 24, 4-(2-Naphthalenethio)glutamic Acid]	100.6
N[C@@H](CC(Oc1cccc2ccccc12)C(=O)O)C(=O)O (some centres unmarked) [Compound 25, 4-(1-Naphthyloxy)glutamic Acid]	98.5
N[C@@H](CC(Oc1cccc2c1CCCC2)C(=O)O)C(=O)O (some centres unmarked) [Compound 26, 4-(5,6,7,8-Tetrahydro-1-naphthyloxy)glutamic Acid]	82.1
CC1(C)CCC(C)(C)c2cc(OC(C[C@H](N)C(=O)O)C(=O)O)ccc21 (some centres unmarked) [Compound 27, 4-(6,7-Dihydro-5,5,8,8-tetramethyl-2-naphthyloxy)glutamic Acid]	66.5
N[C@@H](CC(Oc1ccc2oc3ccccc3c2c1)C(=O)O)C(=O)O (some centres unmarked) [Compound 31, 4-(2-Dibenzofuranoxy)glutamic Acid]	99.4
NC(CC(Oc1ccc2oc3c(c2c1)CCCC3)C(=O)O)C(=O)O (centres unmarked) [Compound 32, 4-(5,6,7,8-Tetrahydro-2-dibenzofuranoxy)glutamic Acid]	92.6
NC(CC(Oc1ccc(C(c2ccc(Cl)cc2)c2ccccn2)cc1)C(=O)O)C(=O)O (centres unmarked) [Compound 35]	92.4
NC(CC(Sc1nncn1Cc1ccccc1)C(=O)O)C(=O)O (centres unmarked) [Compound 36, 4-(4-Benzyl-1,2,4-triazole-3-thio)glutamic Acid]	81.3
N[C@@H](CC(Sc1n[nH]c(C=Cc2ccccc2Cl)n1)C(=O)O)C(=O)O (some centres unmarked) [Compound 38, 4-(5-((2-Chlorophenyl)ethenyl)-1,2,4-triazole-3-thio)glutamic Acid]	89.9
N[C@@H](C[C@H](Oc1ccc2oc3ccccc3c2c1)C(=O)O)C(=O)O [Compound 47, (2S,4S)-4-(2-Dibenzofuranoxy)glutamic Acid]	107.1
NC(CC(Oc1ccc(/C=C/c2ccccc2)cc1)C(=O)O)C(=O)O (centres unmarked) [Compound 48, 4-(4-(4-phenylethenyl)phenoxy)glutamic acid]	91.9
N[C@@H](CC(Oc1ccc(CCc2ccccc2)cc1)C(=O)O)C(=O)O (some centres unmarked) [Compound 49, 4-(4-(2-phenylethyl)phenoxy)glutamic acid]	81.5
NC(CC(Oc1ccc(CCCc2ccccc2)cc1)C(=O)O)C(=O)O (centres unmarked) [Compound 50]	75.9
N[C@@H](CC(Oc1ccc(CCCCc2ccccc2)cc1)C(=O)O)C(=O)O (some centres unmarked) [Compound 51, 4-(4-(4-phenylbutyl)phenoxy)glutamic acid]	81.0

Next, values leading:

Percent displacement of L-[3H]Glu [%]	SMILES
88.0	N[C@@H](CC(Oc1ccccc1)C(=O)O)C(=O)O (some centres unmarked) [Compound 1, 4-Phenoxyglutamic Acid]
82.4	Cc1ccc(OC(C[C@H](N)C(=O)O)C(=O)O)cc1 (some centres unmarked) [Compound 3, 4-(4-Methylphenoxy)glutamic Acid]
66.5	Cc1ccccc1OC(C[C@H](N)C(=O)O)C(=O)O (some centres unmarked) [Compound 4, 4-(2-Methylphenoxy)glutamic acid]
82.3	COc1ccc(OC(C[C@H](N)C(=O)O)C(=O)O)cc1 (some centres unmarked) [Compound 5, 4-(4 Methoxyphenoxy)glutamic Acid]
53.9	CC(C)c1ccc(OC(C[C@H](N)C(=O)O)C(=O)O)cc1 (some centres unmarked) [Compound 6, 4-(4-(Isopropyl)phenoxy)glutamic Acid]
72.0	N[C@@H](CC(Oc1ccc(C2CCCC2)cc1)C(=O)O)C(=O)O (some centres unmarked) [Compound 7, 4-(4-Cyclopentylphenoxy)glutamic Acid]
52.3	CC(C)(C)CC(C)(C)c1ccc(OC(C[C@H](N)C(=O)O)C(=O)O)cc1 (some centres unmarked) [Compound 8, 4-(4-(1,1,3,3-Tetramethylbutyl)phenoxy)glutamic Acid]
85.8	CC(=O)c1ccc(OC(CC(N)C(=O)O)C(=O)O)cc1 (centres unmarked) [Compound 9]
77.9	N[C@@H](CC(Oc1ccc(C(F)(F)F)cc1)C(=O)O)C(=O)O (some centres unmarked) [Compound 10, 4-(4-Trifluoromethylphenoxy)glutamic Acid]
86.7	N[C@@H](CC(Oc1ccc(-c2ccccc2)cc1)C(=O)O)C(=O)O (some centres unmarked) [Compound 12, 4-(4-Phenylphenoxy)glutamic Acid]
93.8	N[C@@H](CC(Oc1ccc(Cc2ccccc2)cc1)C(=O)O)C(=O)O (some centres unmarked) [Compound 14, 4-(4-Benzylphenoxy)glutamic Acid]
84.6	N[C@@H](CC(Oc1ccc(Oc2ccccc2)cc1)C(=O)O)C(=O)O (some centres unmarked) [Compound 19, 4-(4-Phenoxyphenoxy)glutamic Acid]
95.9	N[C@@H](CC(Oc1ccc2ccccc2c1)C(=O)O)C(=O)O (some centres unmarked) [Compound 21, 4-(2-Naphthyloxy)glutamic Acid]
93.9	N[C@@H](CC(Oc1ccc2cc(Br)ccc2c1)C(=O)O)C(=O)O (some centres unmarked) [Compound 22, 4-(6-Bromo-2-naphthyloxy)glutamic Acid]
97.8	N[C@@H](CC(Oc1ccc2c(c1)CCC2)C(=O)O)C(=O)O (some centres unmarked) [Compound 28, 4-(5-Indanyloxy)glutamic Acid]
89.0	N[C@@H](CC(Oc1ccc2c(c1)OCO2)C(=O)O)C(=O)O (some centres unmarked) [Compound 29, 4-(3,4-Methylenedioxyphenoxy)glutamic Acid]
93.7	N[C@@H](CC(Oc1ccc2c(c1)Cc1ccccc1-2)C(=O)O)C(=O)O (some centres unmarked) [Compound 30, 4-(2-Fluorenoxy)glutamic Acid]
90.1	Cc1cc2cc(OC(C[C@H](N)C(=O)O)C(=O)O)ccc2o1 (some centres unmarked) [Compound 33, 4-(2-Methyl-5-benzofuranyloxy)glutamic Acid]
95.3	N[C@@H](CC(Oc1ccc2sccc2c1)C(=O)O)C(=O)O (some centres unmarked) [Compound 34, 4-(5-Benzothiophenyloxy)glutamic Acid]
103.2	Cc1ccc(O[C@@H](C[C@H](N)C(=O)O)C(=O)O)cc1 [Compound 44, (2S,4S)-4-(4-Methylphenoxy)glutamic Acid]
101.5	N[C@@H](C[C@H](Oc1ccc2ccccc2c1)C(=O)O)C(=O)O [Compound 45, (2S,4S)-4-(2-Naphthyloxy)glutamic Acid]
85.5	N[C@@H](C[C@H](Oc1ccc(-c2ccccc2)cc1)C(=O)O)C(=O)O [Compound 46, (2S,4S)-4-(4-Phenylphenoxy)glutamic Acid]
